Values quoted from earlier work, collected in patent publication US20040147564A1, “Combinations of glimepiride and the thiazolidinedione for treatment of diabetes” (priority 2003, published 2004).

Experiments:
[1] = not given; remark: listed apart in the source
[2] = not given; remark: listed apart in the source

Row | Solubility in buffered aqueous solution (pH of 2.3) | Solubility in water (at 25° C.) [µg/mL] | Elimination half-life ([1]; at steady state after oral administration) [h] | Terminal half-life ([1]; in vivo) | Structure (SMILES) | Reduction of absolute HbA1c levels ([2]; human, in vivo) | Increase of plasma insulin levels ([2]; patients with type 2 diabetes) [%]
1 | readily soluble |  |  |  | CN(CCOc1ccc(CC2SC(=O)NC2=O)cc1)c1ccccn1 (stereo not drawn) [Rosiglitazone, rosiglitazone] |  | 
2 |  | ≤ 100 | 5 to 8 | more than 5 hours | CCC1=C(C)CN(C(=O)NCCc2ccc(S(=O)(=O)NC(=O)N[C@H]3CC[C@H](C)CC3)cc2)C1=O [glimepiride, 1-[[p-[2-(3-ethyl-4-methyl-2-oxo-3-pyrroline-1-carboxamido)ethyl]phenyl]sulfonyl]-3-(trans-4-methylcyclohexyl)urea] | 1-2% | ≤ 50
